Data published in paper PMC4685510, “A Cell Biologist’s Field Guide to Aurora Kinase Inhibitors” (Frontiers in Oncology, 2015).

Experiments:
[1] = target: T1, 363 human kinases (including Aurora A/B/C) (Homo sapiens, UniProt P45985); experiment: biochemical; format: biochemical; conditions: MKK4; for remaining activity at 0.1 µM: 100 nM; for remaining activity at 0.1 µM / remaining activity at 0.5 µM: read-out: % Enzyme Activity (relative to DMSO controls)
T1 sequence (P45985 1-399): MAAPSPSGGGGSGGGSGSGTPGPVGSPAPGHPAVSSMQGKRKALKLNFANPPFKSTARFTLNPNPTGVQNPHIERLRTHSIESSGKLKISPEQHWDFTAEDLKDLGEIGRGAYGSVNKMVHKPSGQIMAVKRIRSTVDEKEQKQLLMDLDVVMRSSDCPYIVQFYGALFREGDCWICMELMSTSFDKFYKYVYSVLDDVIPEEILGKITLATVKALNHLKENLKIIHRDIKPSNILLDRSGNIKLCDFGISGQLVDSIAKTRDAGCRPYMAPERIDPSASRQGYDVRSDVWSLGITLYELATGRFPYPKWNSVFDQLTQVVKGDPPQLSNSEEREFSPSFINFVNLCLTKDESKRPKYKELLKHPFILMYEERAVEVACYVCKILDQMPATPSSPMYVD
Source text: (§1) However, the Aurora A/B selectivity ratios derived from our in vitro and in vivo data can be compared to prioritize inhibitors.

[2] = target: 363 human kinases (including Aurora A/B/C) (Homo sapiens, UniProt Q92918); experiment: biochemical; format: biochemical; conditions: HPK1/MAP4K1; for remaining activity at 0.1 µM: 100 nM; for remaining activity at 0.1 µM / remaining activity at 0.5 µM: read-out: % Enzyme Activity (relative to DMSO controls)
Source text: as §1

[3] = target: 363 human kinases (including Aurora A/B/C) (Homo sapiens, UniProt P04049); experiment: biochemical; format: biochemical; conditions: RAF1; for remaining activity at 0.1 µM: 100 nM; for remaining activity at 0.1 µM / remaining activity at 0.5 µM: read-out: % Enzyme Activity (relative to DMSO controls)
Source text: as §1

[4] = target: 363 human kinases (including Aurora A/B/C) (Homo sapiens, UniProt P22607); experiment: biochemical; format: biochemical; conditions: FGFR3, [ATP] 30 µM; for remaining activity at 0.1 µM: 100 nM; for remaining activity at 0.1 µM / remaining activity at 0.5 µM: read-out: % Enzyme Activity (relative to DMSO controls)
Source text: as §1

[5] = target: 363 human kinases (including Aurora A/B/C) (Homo sapiens, UniProt P05771); experiment: biochemical; format: biochemical; conditions: PKCb1; for remaining activity at 0.1 µM: 100 nM; for remaining activity at 0.1 µM / remaining activity at 0.5 µM: read-out: % Enzyme Activity (relative to DMSO controls)
Source text: as §1

[6] = target: 363 human kinases (including Aurora A/B/C) (Homo sapiens, UniProt P37173); experiment: biochemical; format: biochemical; conditions: TGFBR2; for remaining activity at 0.1 µM: 100 nM; for remaining activity at 0.1 µM / remaining activity at 0.5 µM: read-out: % Enzyme Activity (relative to DMSO controls)
Source text: as §1

[7] = target: 363 human kinases (including Aurora A/B/C) (Homo sapiens, UniProt Q04759); experiment: biochemical; format: biochemical; conditions: PKCtheta; for remaining activity at 0.1 µM: 100 nM; for remaining activity at 0.1 µM / remaining activity at 0.5 µM: read-out: % Enzyme Activity (relative to DMSO controls)
Source text: as §1

[8] = target: T2, 363 human kinases (including Aurora A/B/C) (Homo sapiens, UniProt Q9UQB9); experiment: biochemical; format: biochemical; conditions: Aurora C, [ATP] 30 µM
T2 sequence (Q9UQB9 1-309): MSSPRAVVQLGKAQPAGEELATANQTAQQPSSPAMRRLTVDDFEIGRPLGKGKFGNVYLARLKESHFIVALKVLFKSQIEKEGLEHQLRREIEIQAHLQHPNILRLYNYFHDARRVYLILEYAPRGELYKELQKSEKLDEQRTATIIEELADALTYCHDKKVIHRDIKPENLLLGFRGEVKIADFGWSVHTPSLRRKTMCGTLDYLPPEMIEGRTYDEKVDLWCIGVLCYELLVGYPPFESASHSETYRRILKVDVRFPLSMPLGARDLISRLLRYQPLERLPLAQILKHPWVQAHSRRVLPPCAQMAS
Source text: as §1

[9] = target: 363 human kinases (including Aurora A/B/C) (Homo sapiens, UniProt P15056); experiment: biochemical; format: biochemical; conditions: BRAF, [ATP] 10 µM; for remaining activity at 0.1 µM: 100 nM; for remaining activity at 0.1 µM / remaining activity at 0.5 µM: read-out: % Enzyme Activity (relative to DMSO controls)
Source text: as §1

[10] = target: T3, 363 human kinases (including Aurora A/B/C) (Homo sapiens, UniProt Q13976); experiment: biochemical; format: biochemical; conditions: PKG1a; for remaining activity at 0.1 µM: 100 nM
T3 sequence (Q13976 1-671): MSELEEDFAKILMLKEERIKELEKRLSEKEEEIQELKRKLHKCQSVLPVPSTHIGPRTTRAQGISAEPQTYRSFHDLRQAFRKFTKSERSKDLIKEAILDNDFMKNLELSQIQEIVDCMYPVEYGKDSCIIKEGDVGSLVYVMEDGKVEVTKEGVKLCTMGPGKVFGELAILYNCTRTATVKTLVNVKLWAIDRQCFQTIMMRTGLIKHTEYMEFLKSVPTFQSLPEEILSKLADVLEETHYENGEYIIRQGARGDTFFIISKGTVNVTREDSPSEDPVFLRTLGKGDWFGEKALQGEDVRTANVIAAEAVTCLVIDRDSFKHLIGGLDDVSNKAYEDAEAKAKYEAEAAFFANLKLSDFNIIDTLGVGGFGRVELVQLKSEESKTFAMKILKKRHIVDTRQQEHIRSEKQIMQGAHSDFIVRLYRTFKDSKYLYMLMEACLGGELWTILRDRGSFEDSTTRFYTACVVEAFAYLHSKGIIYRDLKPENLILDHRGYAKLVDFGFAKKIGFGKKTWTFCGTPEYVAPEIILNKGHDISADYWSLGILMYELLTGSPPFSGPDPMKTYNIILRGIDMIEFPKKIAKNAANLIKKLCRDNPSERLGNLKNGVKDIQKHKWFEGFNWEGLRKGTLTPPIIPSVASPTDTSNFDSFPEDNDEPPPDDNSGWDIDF
Source text: as §1

[11] = target: 363 human kinases (including Aurora A/B/C) (Homo sapiens, UniProt Q8TDX7); experiment: biochemical; format: biochemical; conditions: NEK7; for remaining activity at 0.1 µM: 100 nM; for remaining activity at 0.1 µM / remaining activity at 0.5 µM: read-out: % Enzyme Activity (relative to DMSO controls)
Source text: as §1

[12] = target: T4, 363 human kinases (including Aurora A/B/C) (Homo sapiens, UniProt Q15831); experiment: biochemical; format: biochemical; conditions: LKB1
T4 sequence (Q15831 1-433): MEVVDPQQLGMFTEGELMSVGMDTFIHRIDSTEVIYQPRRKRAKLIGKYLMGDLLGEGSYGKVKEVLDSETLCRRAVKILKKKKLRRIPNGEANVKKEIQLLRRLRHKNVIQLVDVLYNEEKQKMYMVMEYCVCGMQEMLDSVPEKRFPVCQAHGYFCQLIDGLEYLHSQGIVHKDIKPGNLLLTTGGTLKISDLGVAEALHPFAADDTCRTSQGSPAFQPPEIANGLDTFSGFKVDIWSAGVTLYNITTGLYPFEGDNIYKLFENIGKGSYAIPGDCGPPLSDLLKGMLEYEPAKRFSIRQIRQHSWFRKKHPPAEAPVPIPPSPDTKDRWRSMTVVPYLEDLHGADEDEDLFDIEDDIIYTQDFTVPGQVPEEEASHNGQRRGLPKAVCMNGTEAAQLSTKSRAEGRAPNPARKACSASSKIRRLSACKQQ
Source text: as §1

U2OS cells = experiment: G2 duration live imaging assay (GFP-PCNA; H2B-RFP), U2OS; format: cell-based; conditions: Homo sapiens, read-out: G2/M (G2 duration) IC50
RPE1 cells = experiment: G2 duration live imaging assay (GFP-PCNA; H2B-RFP), RPE1; format: cell-based; conditions: Homo sapiens, RPE-1, read-out: G2/M (G2 duration) IC50
[13] = 100 nM, read-out: % Enzyme Activity (relative to DMSO controls)
[14] = read-out: % Enzyme Activity (relative to DMSO controls)
[15] = 500 nM, read-out: % Enzyme Activity (relative to DMSO controls)

Chain of 363 human kinases (including Aurora A/B/C) (Homo sapiens, UniProt P05771) (P05771 whole entry): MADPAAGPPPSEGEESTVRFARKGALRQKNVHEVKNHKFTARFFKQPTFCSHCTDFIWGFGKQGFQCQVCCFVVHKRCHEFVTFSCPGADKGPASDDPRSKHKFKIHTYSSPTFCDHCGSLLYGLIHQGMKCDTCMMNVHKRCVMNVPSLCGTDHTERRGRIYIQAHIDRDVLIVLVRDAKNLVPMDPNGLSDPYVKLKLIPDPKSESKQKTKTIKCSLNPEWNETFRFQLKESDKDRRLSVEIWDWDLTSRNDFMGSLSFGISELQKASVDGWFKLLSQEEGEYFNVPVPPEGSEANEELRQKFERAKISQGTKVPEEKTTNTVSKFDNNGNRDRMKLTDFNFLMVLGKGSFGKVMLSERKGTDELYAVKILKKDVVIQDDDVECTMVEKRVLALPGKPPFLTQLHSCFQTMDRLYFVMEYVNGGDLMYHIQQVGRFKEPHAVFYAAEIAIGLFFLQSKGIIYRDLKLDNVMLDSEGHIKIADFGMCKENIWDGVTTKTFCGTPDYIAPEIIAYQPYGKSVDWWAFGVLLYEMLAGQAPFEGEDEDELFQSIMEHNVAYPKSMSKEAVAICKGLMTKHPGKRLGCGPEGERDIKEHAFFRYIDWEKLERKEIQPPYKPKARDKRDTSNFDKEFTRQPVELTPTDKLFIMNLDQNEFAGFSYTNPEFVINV
Chain of 363 human kinases (including Aurora A/B/C) (Homo sapiens, UniProt Q8TDX7) (Q8TDX7 whole entry): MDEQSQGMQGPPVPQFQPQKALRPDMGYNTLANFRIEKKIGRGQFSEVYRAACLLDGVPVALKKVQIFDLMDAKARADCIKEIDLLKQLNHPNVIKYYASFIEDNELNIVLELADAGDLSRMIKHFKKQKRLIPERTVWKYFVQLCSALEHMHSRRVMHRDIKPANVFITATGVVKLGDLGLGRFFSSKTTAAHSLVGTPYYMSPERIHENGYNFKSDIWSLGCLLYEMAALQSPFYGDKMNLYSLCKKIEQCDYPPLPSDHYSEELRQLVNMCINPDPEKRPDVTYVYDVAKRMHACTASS
Chain of 363 human kinases (including Aurora A/B/C) (Homo sapiens, UniProt P15056) (P15056 whole entry): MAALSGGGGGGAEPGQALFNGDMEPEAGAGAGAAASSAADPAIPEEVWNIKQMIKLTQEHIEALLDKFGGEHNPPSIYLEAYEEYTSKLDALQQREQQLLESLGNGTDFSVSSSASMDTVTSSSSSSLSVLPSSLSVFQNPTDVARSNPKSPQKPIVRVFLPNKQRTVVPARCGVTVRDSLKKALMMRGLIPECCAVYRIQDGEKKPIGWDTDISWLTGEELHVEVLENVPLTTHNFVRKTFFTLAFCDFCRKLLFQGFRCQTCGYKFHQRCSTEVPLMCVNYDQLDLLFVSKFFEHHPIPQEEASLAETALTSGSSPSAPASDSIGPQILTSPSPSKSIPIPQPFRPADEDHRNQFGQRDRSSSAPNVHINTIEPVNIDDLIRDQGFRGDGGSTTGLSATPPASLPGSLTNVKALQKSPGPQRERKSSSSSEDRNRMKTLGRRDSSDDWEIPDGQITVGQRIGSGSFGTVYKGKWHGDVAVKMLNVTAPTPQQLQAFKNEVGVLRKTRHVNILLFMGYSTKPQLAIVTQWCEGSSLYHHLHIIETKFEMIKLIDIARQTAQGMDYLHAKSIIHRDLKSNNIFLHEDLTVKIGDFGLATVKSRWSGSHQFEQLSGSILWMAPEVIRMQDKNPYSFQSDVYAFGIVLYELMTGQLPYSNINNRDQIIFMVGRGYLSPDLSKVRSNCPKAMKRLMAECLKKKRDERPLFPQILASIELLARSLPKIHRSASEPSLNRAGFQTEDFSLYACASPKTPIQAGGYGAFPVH
Chain of 363 human kinases (including Aurora A/B/C) (Homo sapiens, UniProt Q92918) (Q92918 whole entry): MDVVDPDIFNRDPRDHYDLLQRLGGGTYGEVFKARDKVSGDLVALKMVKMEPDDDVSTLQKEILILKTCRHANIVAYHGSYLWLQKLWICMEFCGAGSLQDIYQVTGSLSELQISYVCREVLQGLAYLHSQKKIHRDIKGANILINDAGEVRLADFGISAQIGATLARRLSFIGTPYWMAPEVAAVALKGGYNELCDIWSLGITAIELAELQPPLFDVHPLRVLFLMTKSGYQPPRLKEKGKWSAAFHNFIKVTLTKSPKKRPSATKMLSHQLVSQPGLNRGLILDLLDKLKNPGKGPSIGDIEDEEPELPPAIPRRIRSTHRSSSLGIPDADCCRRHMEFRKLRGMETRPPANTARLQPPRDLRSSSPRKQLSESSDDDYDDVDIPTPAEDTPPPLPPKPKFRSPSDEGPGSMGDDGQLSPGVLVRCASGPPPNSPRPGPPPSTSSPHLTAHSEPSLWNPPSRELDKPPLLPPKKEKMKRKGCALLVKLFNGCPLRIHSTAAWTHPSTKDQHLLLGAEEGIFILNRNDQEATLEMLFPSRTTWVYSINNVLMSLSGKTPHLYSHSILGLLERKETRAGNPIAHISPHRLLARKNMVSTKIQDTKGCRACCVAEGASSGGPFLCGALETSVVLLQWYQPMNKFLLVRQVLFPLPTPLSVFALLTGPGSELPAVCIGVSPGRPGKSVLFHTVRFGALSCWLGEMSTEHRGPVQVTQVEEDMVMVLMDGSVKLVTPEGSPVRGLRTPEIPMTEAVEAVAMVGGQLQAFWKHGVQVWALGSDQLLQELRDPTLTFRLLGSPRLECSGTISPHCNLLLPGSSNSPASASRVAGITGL
Chain of 363 human kinases (including Aurora A/B/C) (Homo sapiens, UniProt Q04759) (Q04759 whole entry): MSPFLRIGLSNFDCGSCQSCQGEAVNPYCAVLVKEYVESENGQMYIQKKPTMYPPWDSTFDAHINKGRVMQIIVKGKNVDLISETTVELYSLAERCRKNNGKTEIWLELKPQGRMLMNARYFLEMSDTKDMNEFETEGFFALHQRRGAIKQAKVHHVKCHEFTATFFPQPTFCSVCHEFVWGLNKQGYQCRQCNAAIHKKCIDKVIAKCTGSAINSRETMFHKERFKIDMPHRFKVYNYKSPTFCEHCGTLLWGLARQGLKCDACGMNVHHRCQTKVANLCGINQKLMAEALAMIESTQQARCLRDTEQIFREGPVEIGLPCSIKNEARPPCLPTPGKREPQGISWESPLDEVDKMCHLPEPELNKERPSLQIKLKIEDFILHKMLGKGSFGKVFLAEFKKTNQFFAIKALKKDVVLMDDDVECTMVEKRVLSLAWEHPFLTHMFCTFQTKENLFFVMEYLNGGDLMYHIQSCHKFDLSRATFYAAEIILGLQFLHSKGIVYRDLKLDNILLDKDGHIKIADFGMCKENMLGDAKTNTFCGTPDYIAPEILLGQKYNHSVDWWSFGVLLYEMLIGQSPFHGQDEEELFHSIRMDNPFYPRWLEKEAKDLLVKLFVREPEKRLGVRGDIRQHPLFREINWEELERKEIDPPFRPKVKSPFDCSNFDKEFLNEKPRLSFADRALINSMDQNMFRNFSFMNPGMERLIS
Chain of 363 human kinases (including Aurora A/B/C) (Homo sapiens, UniProt P37173) (P37173 23-567): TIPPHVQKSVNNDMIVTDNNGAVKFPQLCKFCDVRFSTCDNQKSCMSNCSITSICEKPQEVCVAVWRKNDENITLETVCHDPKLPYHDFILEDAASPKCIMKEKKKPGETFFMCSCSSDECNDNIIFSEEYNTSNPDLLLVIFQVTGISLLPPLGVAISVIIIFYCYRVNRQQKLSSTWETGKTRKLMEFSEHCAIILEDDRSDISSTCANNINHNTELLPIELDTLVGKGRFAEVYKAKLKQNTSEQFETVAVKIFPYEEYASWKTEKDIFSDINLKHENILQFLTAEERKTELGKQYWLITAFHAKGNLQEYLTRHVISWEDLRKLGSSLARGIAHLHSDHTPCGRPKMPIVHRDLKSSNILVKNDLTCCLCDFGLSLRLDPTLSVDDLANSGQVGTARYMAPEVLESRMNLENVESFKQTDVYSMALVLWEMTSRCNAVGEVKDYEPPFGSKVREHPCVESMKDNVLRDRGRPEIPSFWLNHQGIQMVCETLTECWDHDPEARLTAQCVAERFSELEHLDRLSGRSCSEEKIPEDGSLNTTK
Chain of 363 human kinases (including Aurora A/B/C) (Homo sapiens, UniProt P04049) (P04049 whole entry): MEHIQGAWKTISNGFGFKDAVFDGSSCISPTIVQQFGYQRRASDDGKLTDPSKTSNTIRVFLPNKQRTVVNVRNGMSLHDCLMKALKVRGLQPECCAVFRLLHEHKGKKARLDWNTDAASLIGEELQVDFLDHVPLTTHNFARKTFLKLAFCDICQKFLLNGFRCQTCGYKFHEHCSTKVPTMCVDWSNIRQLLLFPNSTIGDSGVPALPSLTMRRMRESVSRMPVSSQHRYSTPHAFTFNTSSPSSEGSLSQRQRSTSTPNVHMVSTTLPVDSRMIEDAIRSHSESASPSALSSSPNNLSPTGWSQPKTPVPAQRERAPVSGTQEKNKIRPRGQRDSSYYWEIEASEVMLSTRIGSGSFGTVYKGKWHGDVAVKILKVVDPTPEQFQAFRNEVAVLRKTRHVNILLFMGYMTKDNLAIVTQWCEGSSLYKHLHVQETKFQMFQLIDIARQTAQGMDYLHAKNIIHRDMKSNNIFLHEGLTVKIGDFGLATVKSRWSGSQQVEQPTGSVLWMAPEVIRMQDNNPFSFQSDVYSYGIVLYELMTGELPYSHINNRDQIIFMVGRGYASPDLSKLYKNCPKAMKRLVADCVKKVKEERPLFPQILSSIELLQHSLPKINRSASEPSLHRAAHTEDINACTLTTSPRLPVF

| Compound | remaining activity at 0.1 µM [1] [%] | remaining activity at 0.1 µM [2] [%] | remaining activity at 0.1 µM [3] [%] | remaining activity at 0.1 µM [4] [%] | remaining activity at 0.1 µM [5] [%] | remaining activity at 0.1 µM [6] [%] | remaining activity at 0.1 µM [7] [%] | remaining activity at 0.1 µM [9] [%] | remaining activity at 0.1 µM [10, 14] [%] | remaining activity at 0.1 µM [11] [%] | remaining activity at 0.5 µM ([1]; 500 nM) [%] | remaining activity at 0.5 µM ([2]; 500 nM) [%] | remaining activity at 0.5 µM ([3]; 500 nM) [%] | remaining activity at 0.5 µM ([4]; 500 nM) [%] | remaining activity at 0.5 µM ([5]; 500 nM) [%] | remaining activity at 0.5 µM ([6]; 500 nM) [%] | remaining activity at 0.5 µM ([7]; 500 nM) [%] | remaining activity at 0.5 µM [12, 15] [%] | remaining activity at 0.5 µM ([9]; 500 nM) [%] | remaining activity at 0.5 µM ([11]; 500 nM) [%] | other results |
| --- | --- | --- | --- | --- | --- | --- | --- | --- | --- | --- | --- | --- | --- | --- | --- | --- | --- | --- | --- | --- | --- |
| CCn1cc(-c2ccnc3[nH]c(-c4cccc(CN(C)C)c4)cc23)c(-c2ccc(NC(=O)N(C)C)cc2)n1 [GSK1070916] | 90.1 | 109 | 100 | 63.8 | 98.6 | 121 | 92.7 | 97.1 | 126 | 102 | – | – | – | – | – | – | – | – | – | – | remaining activity at 0.1 µM [8, 13]: 39.7% |
| O=C(O)[C@]1(Cc2cccc(Nc3nccs3)n2)CC[C@@H](Oc2cccc(Cl)c2F)CC1 [MK-5108] | 95.7 | 105 | 97.7 | 64.9 | 87.4 | 92.6 | 91.8 | 103 | 122 | 98.5 | 97.7 | 82.1 | 94.8 | 31.5 | 74 | 86.3 | 104 | 47.4 | 94.7 | 109 | remaining activity at 0.1 µM [12, 13]: 76.6%; IC50 (U2OS cells): 995 nM; IC50 (RPE1 cells): 877 nM |
| O=C(c1cccc(Cl)c1F)N1CCN(Cc2cccc(Nc3nccs3)n2)CC1 [MK-8745] | – | – | – | – | – | – | – | – | – | – | 90.9 | 87.3 | 95.6 | 95.9 | 98.2 | 109 | 157 | 26.1 | 96.1 | 109 | % Enzyme Activity (relative to DMSO controls) ([1]; 500 nM): 89.78%; % Enzyme Activity (relative to DMSO controls) ([2]; 500 nM): 81.94%; % Enzyme Activity (relative to DMSO controls) ([3]; 500 nM): 93.98%; % Enzyme Activity (relative to DMSO controls) ([4]; 500 nM): 95.75%; % Enzyme Activity (relative to DMSO controls) ([5]; 500 nM): 96.23%; % Enzyme Activity (relative to DMSO controls) ([6]; 500 nM): 108.29%; % Enzyme Activity (relative to DMSO controls) ([7]; 500 nM): 152.58%; % Enzyme Activity (relative to DMSO controls) ([8]; 500 nM): 46.69%; remaining activity at 0.5 µM [8, 15]: 47.4%; % Enzyme Activity (relative to DMSO controls) ([12]; 500 nM): 25.85%; % Enzyme Activity (relative to DMSO controls) ([9]; 500 nM): 94.88%; % Enzyme Activity (relative to DMSO controls) ([10]; 500 nM): 94.34%; remaining activity at 0.5 µM [10, 15]: 95.4%; % Enzyme Activity (relative to DMSO controls) ([11]; 500 nM): 107.51%; IC50 (U2OS cells): 437 nM; IC50 (RPE1 cells): 755 nM |
